Test results from patent US12411128B2, “Methods and apparatuses for prediction of mechanism of activity of compounds” (The Regents of the University of California, priority 2017, dated 2025).

Legend:
[1] = test system: human ventricular cardiac tissue strips (hvCTS); test: binary SVM cardioactivity index from hvCTS twitch force readouts; type: cell-based; details: for cardioactivity versus vehicle-treated hvCTS by binary SVM accuracy: over tested concentration range, Student's t-test with Bonferroni correction
Protocol: The binary SVM is capable of summarizing all parameters and providing a simple metric that expresses a compound's degree of cardioactivity at a given dosage (Lee et al., 2015). […] As a result, a SVM accuracy metric is calculated to reflect the machine's ability to identify a cardioactive effect (e.g. 75% accuracy means that out of 100 data points, the machine could correctly classify 75 of them). To account for variations within the data set, multiple runs are performed to calculate the mean SVM accuracy. […] Prominent cardioactive effects allow the space between the data from treated and control conditions to become more distinguishable, leading to a higher SVM accuracy with 100% being the maximum.
Although the hvCTSs (FIG. 3, A) were examined under temperature-controlled conditions, there was an observable drift in contractile behavior of the vehicle-treated hvCTSs. For example, the relative measured maximum developed force increased for all pacing frequencies by a cumulative average of 16.96±0.83% upon the ninth serial addition (FIG. 3, B). To account and normalize for baseline drift, each drug condition was compared to its respective vehicle condition via binary SVM (e.g., measurements of the 7th serial drug addition were compared to those of vehicle-treated hvCTSs at the 7th serial addition). To establish a benchmark of non-cardioactivity, a subset of the vehicle-treated hvCTSs were randomly selected to model a non-cardioactive compound. Binary SVM was then performed between the subset and a corresponding control group of equal size (n).
Human ventricular cardiomyocytes were differentiated from a hES2 stem cell line with a Wnt inhibitor-based protocol as previously described (Weng et al., 2014). Human ventricular cardiac tissue strips (hvCTS) were then formed by mixing cardiomyocytes (100 k cells per strip) at 14-16 days post differentiation with a solution of bovine collagen I (2 mg/mL), Matrigel (0.9 mg/mL), and human foreskin fibroblasts (100 k cells per strip) as previously described (Turnbull et al., 2014). The cell-matrix solution (100 uL per tissue strip) was injected into a custom PDMS force-sensing bioreactor device and placed in an incubator (37° C. and 5% CO2). Formed hvCTSs were fed DMEM with 10% new born calf serum, 1% penicillin-streptomycin and 0.1% amphotericin B. The PDMS device contains two flexible vertical end-posts to which the tissue anchors, causing the posts to deflect as the tissue beats. Contractile force measurements were captured with a high speed (100 fps) CCD camera while custom LabVIEW software tracked the centroid movement of the flexible post tips. Force was converted from the deflection of the PDMS posts by an elastic beam bending equation (Serrao et al., 2012). […]

[2] = test system: human ventricular cardiac tissue strips (hvCTS); test: individual contractile force parameters of electrically paced hvCTS; details: for change of duration of relaxation phase / change of max force: increasing concentration up to 10^−4 M (100 μM)
Text: Each of the compounds, with the exception of aspirin, belonged to one of five classes with each class comprising a minimum of two compounds. Aspirin functioned as a reference for a cardiac-neutral compound. […] The parameters include: • 1. Desired pacing frequency. • 2. Captured pacing frequency. • 3. Max force generated (amplitude). • 4. […] Max change of force over time ([…]F/[…]t) of contraction phase. • 9. Max change of force over time ([…]F/[…]t) of relaxation phase. • 10. Duration of rise from 50% cutoff to max force. • 11. Duration of decline from max force to 50% cutoff. • 12. Area under the curve of rise from 50% cutoff to max force. • 13. Area under the curve of decline from max force to 50% cutoff. • 14. […] Area under the curve of rise from 50% cutoff to max force. • 17. Area under the curve of decline from max force to 50% cutoff.
The cell-matrix solution (100 uL per tissue strip) was injected into a custom PDMS force-sensing bioreactor device and placed in an incubator (37° C. and 5% CO2). Formed hvCTSs were fed DMEM with 10% new born calf serum, 1% penicillin-streptomycin and 0.1% amphotericin B. The PDMS device contains two flexible vertical end-posts to which the tissue anchors, causing the posts to deflect as the tissue beats. Contractile force measurements were captured with a high speed (100 fps) CCD camera while custom LabVIEW software tracked the centroid movement of the flexible post tips. […] A custom MATLAB script was used to calculate 17 parameters that described the overall shape of the force traces for each contractile event (FIG. 1). Each contraction was regarded as an individual data point for the machine learning analysis.
After 7-8 days post tissue formation, hvCTS were exposed to drugs for pharmacodynamic analysis. Flecainide, lisinopril, norepinephrine and ramipril were provided by Pfizer, while all other compounds were purchased form Sigma-Aldrich. Compounds were initially resuspended in DMSO and subsequently diluted in water for final concentrations composed of less than 0.1% (vol/vol) DMSO. The PDMS device containing the hvCTS was placed onto a heated stage (37° C.) under a dissecting microscope. Before either vehicle or drug addition, the media was replaced with DMEM containing high glucose (4.5 g/L) and HEPES without phenol red. Drug doses were added to a tissue in consecutively increasing manner up to 10 concentrations with 3 minutes in between measurements. Vehicle doses containing only water were applied similarly. A pulse stimulator (AMPI Master-9) connected to platinum wires electrically paced the hvCTS with a monophasic electric field of 5 V/cm with a 10 ms pulse duration.
SVM accuracies of strips exposed to a drug condition were compared to those of the non-cardioactive benchmark by using Student's t-test (desired a value of 0.05) with a Bonferroni correction (m, number of tests or hypotheses, was dependent on the number of drug additions in a screen). […] The Bonferroni correction was also applied when examining changes in specific parameters.

[3] = test system: human ventricular cardiac tissue strips (hvCTS); test: class relationship metrics: binary SVM with Gaussian fit between 'unknown' and library compound; type: cell-based; details: for Estimated Similar Concentration of digoxin: ouabain at 1.0 × 10^−5 M
Protocol: Once the drug classes were predicted, the concentrations of library compounds that induced the most similar cardioactive effects as the ‘unknown’ compounds were computed (FIG. 7; protocol in Example 5).
The concentration of a library compound that induced the most similar cardioactive effects as the compound of interest was determined. This class relationship metric was computed by first selecting the compound of interest at a desired concentration and performing a series of binary SVM among the tested range of a library compound. For each concentration of the library compound, the closer the SVM accuracy was to 50%, the more defined boundaries of the compounds overlapped and the more similar the cardioactive effects were. This relationship between SVM accuracy and tested concentration range was presumed to behave in a Gaussian manner with the centroid representing the concentration that would elicit the most similar effects. The Gaussian fit was set with 50% as the lower limit and the highest achieved SVM accuracy as the upper limit. If the original SVM accuracies reached the 50% mark and remained around this value for subsequent concentrations, only the first concentration to reach the 50% was included in the fit to accurately model one side of the Gaussian curve.

CCOC(=O)[C@H](CCc1ccccc1)N[C@@H](C)C(=O)N1[C@H](C(=O)O)C[C@@H]2CCC[C@@H]21 [Ramipril]
cardioactivity versus vehicle-treated hvCTS by binary SVM accuracy [1]: did not have detectable cardioactive effects

C[C@H]1O[C@@H](O[C@H]2[C@@H](O)C[C@H](O[C@H]3[C@@H](O)C[C@H](O[C@H]4CC[C@@]5(C)[C@H](CC[C@@H]6[C@@H]5C[C@@H](O)[C@]5(C)[C@@H](C7=CC(=O)OC7)CC[C@]65O)C4)O[C@@H]3C)O[C@@H]2C)C[C@H](O)[C@@H]1O [Digoxin]
change of duration of relaxation phase ([2]; paced at 0.5 Hz): increase in duration of relaxation phase
change of max force ([2]; paced at 0.5 Hz): decrease in max force

C[C@@H]1O[C@@H](O[C@H]2C[C@@H](O)[C@]3(CO)[C@H]4[C@H](O)C[C@]5(C)[C@@H](C6=CC(=O)OC6)CC[C@]5(O)[C@@H]4CC[C@]3(O)C2)[C@H](O)[C@H](O)[C@H]1O [Ouabain]
treated strips that stopped beating at all pacing frequencies ([2]; 100 μM): 4 of the 10
fold lower concentration than digoxin to achieve the same level of cardioactivity ([3]; ouabain 1.0×10^−5 M vs digoxin 5.35×10^−5 M): approximately 5 fold
Estimated Similar Concentration of digoxin ([3]; centroid of Gaussian fit): Digoxin (5.35 × 10^−5) M
Estimated Similar Concentration of digoxin ([3]; centroid of Gaussian fit, listed as ouabain): 53.5 µM

CC(C)NCC(O)c1ccc(O)c(O)c1 (stereo not shown) [Isoproterenol]
decrease of duration of the relaxation phase (time from maximum developed force to 95% cutoff) ([2]; 10 μM): 22.19±19.35%
increase in maximum developed force ([2]; 10 μM, paced at 0.5 Hz): 10.42±16.23%
duration of the relaxation phase versus the vehicle study (lusitropic effect) ([2]; paced at 0.5 Hz, 3.0×10^−7 to 10^−5 M, n=10): decreased significantly
inotropic effect ([2]; paced hvCTS (nifedipine 1 Hz; isoproterenol 10 μM, 0.5 Hz)): negligible inotropic effects

COc1cc(N)c(Cl)cc1C(=O)NC1CCN(CCCOc2ccc(F)cc2)CC1OC (stereo not shown) [Cisapride]
change of duration of relaxation phase ([2]; paced at 0.5 Hz): increased
change of max force ([2]; paced at 0.5 Hz): decreased
Estimated Similar Concentration of flecainide ([3]; cisapride at 1.0 × 10^−4 M, centroid of Gaussian fit): Flecainide (1.03 × 10^−5) M

NCCCC[C@H](N[C@@H](CCc1ccccc1)C(=O)O)C(=O)N1CCC[C@H]1C(=O)O [Lisinopril]
cardioactivity versus vehicle-treated hvCTS by binary SVM accuracy [1]: did not have detectable cardioactive effects

COCC(=O)O[C@]1(CCN(C)CCCc2nc3ccccc3[nH]2)CCc2cc(F)ccc2[C@@H]1C(C)C [Mibefradil]
Estimated Similar Concentration of nifedipine ([3]; mibefradil at 3.0 × 10^−6 M, centroid of Gaussian fit): Nifedipine (1.28 × 10^−7) M

NC[C@H](O)c1ccc(O)c(O)c1 [Norepinephrine]
Estimated Similar Concentration of isoproterenol ([3]; norepinephrine at 1.0 × 10^−5 M, centroid of Gaussian fit): (1.44 × 10^−6) M

CC(=O)Oc1ccccc1C(=O)O [Aspirin]
SVM accuracy, average among all serial additions ([1]; binary SVM vs vehicle-treated hvCTS, 10 nM to 100 μM, n=6): 52.85±1.77%
cardioactivity versus vehicle-treated hvCTS by binary SVM accuracy [1]: non-cardioactivity
